Test system: human liver microsomes, metabolic stability half-life
Test: NCATS Human Liver Microsomal (HLM) Stability Profiling
Conditions: higher = more stable; screened at 1 µM (by protocol)
Excerpt: Assay submitter (PI): Dr. Pranav Shah
NIH Center for Advancing Translational Sciences
Pharmacokinetic issues were the leading cause of drug attrition, accounting for approximately 40% of all cases before the turn of the century. To this end, several high-throughput in vitro assays like microsomal stability have been developed to evaluate the pharmacokinetic profiles of compounds in early stages of drug discovery. At NCATS, a single-point rat liver microsomal (RLM) stability assay is used as a Tier I assay, while human liver microsomal (HLM) stability is employed as a Tier II assay. While it is beneficial to have compound libraries screened for HLM stability, the increasing magnitude of hits routinely generated, and the time- and re-source-intensive nature of the assay makes it important to find alternatives. One strategy is to rely on in silico models that have been developed using data generated from these assays. Herein, we describe the development of an HLM stability prediction model using our in-house dataset of ~7,000 compounds, employing both traditional and advanced machine learning methods. Additionally, the strong correlation between our RLM and HLM data was further reinforced by the fact that our HLM model performance improved after adding RLM stability predictions as an input descriptor. […] The best model along with a subset of our dataset has been made publicly accessible on the NCATS@ADME website for the benefit of the greater drug discovery community.
Microsomal Stability Assay
The substrate depletion method, also called the in vitro t1/2 method was used to analyze test compounds. Incubation and liquid handling were carried out using a previously described method (Shah et al., 2016). Briefly, each reaction mixture (110 µL) consisted of a test article (1 µM), human liver microsomes (0.5 mg/mL), and NADPH regenerating system in phosphate buffer at pH 7.4. Samples were incubated in 384-well plates at 37 degrees C for 0, 5, 10, 15, 30 and 60 min. At each time point, 10 µL of the incubation mixture was aspirated into another 384-well plate which contained cold acetonitrile (ACN) with internal standard (albendazole). All plates were centrifuged at 3000 rpm for 20 min at 4 degrees C, and the supernatants were transferred to a 384-well injection plate. Sample quantification and analysis was performed using a previously described method (Shah et al., 2016, Siramshetty et al., 2020).
1: Shah, P. et al. An Automated High-Throughput Metabolic Stability Assay Using an Integrated High-Resolution Accurate Mass Method and Automated Data Analysis Software. Drug Metab Dispos 44, 1653-1661 (2016).
2: Siramshetty et al. Retrospective assessment of rat liver microsomal stability at NCATS: data and QSAR models. Sci Rep 26;10(1):20713 (2020).

SMILES | half-life [min]
COc1ccc(CCNc2nc(SCc3ccccc3Cl)nc3ccccc23)cc1OC | 7.1
O=c1[nH]c2ccc(Cl)cc2c(N[C@@H]2CN3CCC2CC3)c1-c1nc2ccccc2[nH]1 | 18.8
COc1cccc(NC(=O)c2oc3ccc(S(=O)(=O)N4CCC5(CC4)OCCO5)cc3c2C)c1 | 12.2
CCOc1ccc(NC(=O)N2CCN(c3ccc(Cl)c(Cl)c3)CC2)cc1 | > 120
C/C(=N/NC(=O)c1ccncc1)C(=O)O | > 120
Cc1cc(-c2ncc(CC(=O)Nc3ccc(-c4cnccn4)cn3)cc2C)ccn1 | 36.4
CN1CCN(C2CCC(n3cc(-c4ccc(Oc5ccccc5)cc4)c4c(N)ncnc43)CC2)CC1 (stereo not drawn) | 58.6
CN(C)CCN1C(=O)c2ccccc2N(C)c2ccccc21 | > 120
COc1ccc(OC)c(C2C(C#N)=C(N)Oc3n[nH]c(-c4ccc5ccccc5c4)c32)c1 (stereo not drawn) | > 120
CNCC[C@@H](Oc1ccccc1C)c1ccccc1 | 23.9
N#Cc1cccc(CN2CC(COc3ccccc3)C3(C2)CN(c2ccccc2)C3)c1 (stereo not drawn) | 3.65
Cc1c(C)n(Cc2ccc(-c3ccccc3C(=O)O)cc2)c2ccc(C(=O)N[C@@H](C)c3ccc([N+](=O)[O-])cc3)cc12 | > 120
Cc1cc(OCc2nnc(SC3CCCC3)n2-c2cccnc2)ccc1-c1ccc(S(C)(=O)=O)cc1 | 1.66
CC[C@H](C)C(=O)O[C@H]1C[C@@H](C)C=C2C=C[C@H](C)[C@H](CC[C@@H]3C[C@@H](O)CC(=O)O3)[C@H]21 | 7.05
CC(=O)N1CCN(C(=O)Cc2ccc(Nc3ncc(F)c(Nc4ccc(C(=O)Nc5ccccc5Cl)cc4)n3)cc2)CC1 | 15.6
CC[C@@H](C)Nc1cc(C(=O)NC2CC3CC[C@@H](C2)N3c2ccc(C(=O)C3CC3)cn2)c(C)cc1C(N)=O (stereo partly drawn) | > 120
COc1ccc(Cn2c(SCC(=O)N3CCN(c4ccc(F)cc4)CC3)nc3ccccc32)cc1 | 2.2
COc1ccccc1Cn1cc(C(=O)c2ccc(Cl)cc2)c(=O)c2cc3c(cc21)OCCO3 | 40.8
Cc1ccc(-c2c(-c3nn(C)c4ncnc(N5CCC(N6CCCCC6)C5)c34)cnn2C)cc1 (stereo not drawn) | > 120
CCN(CC)Cc1cccc(/C=C/c2nc3ccc(F)cc3c(=O)n2-c2ccccc2Cl)n1 | 25.8
CCc1cc(-c2n[nH]c(C)c2-c2ccc3c(c2)OCCO3)c(O)cc1O | 13.4
COc1ccc(CN(CCN(C)C)c2ncccn2)cc1 | 8.72
O=C(CCc1ccccc1)N1CCC(O)(Cn2cnc3cc(Cl)ccc3c2=O)CC1 | 3.16
CN1CCN(C(=O)c2ccc(Nc3nccc(-c4cccs4)n3)cc2Cl)CC1 | 19.2
Cn1c(=O)c(F)c(Nc2ccc(I)cc2F)c2c(=O)n(CC(O)CO)cnc21 (stereo not drawn) | > 120

SMILES | half-life [min]
Cc1cc2c(F)c(Oc3ncnn4cc(OCC(C)O)c(C)c34)ccc2[nH]1 (stereo not drawn) | > 120
COc1ccc(-c2ccc3cc(C(=O)O)ccc3c2)cc1C12CC3CC(CC(C3)C1)C2 | 46.1
CC(C)c1nn(-c2c(Cl)cccc2Cl)c2nc(Cc3ccc(OCCO)cc3)[nH]c(=O)c12 | 32.2
C[C@@H]1CCC[C@H](C)N1CCCC(O)(c1ccccc1)c1ccccn1 (stereo partly drawn) | > 120
Nc1nc2ccccc2n1Cc1ccc(F)cc1 | > 120
COc1cc2nc(Cl)nc(N)c2cc1OC | 105
C[C@@H]1C[C@H]2[C@@H]3C[C@H](F)C4=CC(=O)C(Cl)=C[C@]4(C)[C@@]3(F)[C@@H](O)C[C@]2(C)[C@@]1(O)C(=O)CO | 46.3
CCCC(C)(COC(N)=O)COC(=O)NC(C)C (stereo not drawn) | > 120
CCN(CC)C(=O)c1ccc(Nc2nc(OCC3CCCCC3)c3[nH]cnc3n2)cc1 | 8.96
C[C@]12CCC(=O)C=C1[C@@H]1C[C@@H]1[C@H]1[C@@H]3[C@@H]4C[C@@H]4[C@@]4(CCC(=O)O4)[C@@]3(C)CC[C@@H]12 | > 120
Cn1c(N2CCCCS2(=O)=O)nc(C(=O)NCc2ccc(F)cc2)c(O)c1=O | > 120
Clc1ccc(COC(Cn2ccnc2)c2ccc(Cl)cc2Cl)cc1 (stereo not drawn) | 89.8
CC(C)c1ccccc1OC(=O)NCCc1ccc2ccccc2c1 | 4.54
COc1ccc(-c2cc3onc(-c4ccncc4)c3c(=O)n2C)cc1 | > 120
COc1ccc2nc([C@H]3CCN(Cc4ccc(C(=O)O)cc4)C3)[nH]c2c1 | > 120
c1cncc(CN2CCC(n3ncc4c(N5CCOCC5)nc(-c5ccc6[nH]ccc6c5)nc43)CC2)c1 | 14.9
CC1=C(C(=O)Nc2cccc(-c3ccn[nH]3)c2)C(c2ccccc2Cl)N=C(Nc2nc3ccccc3o2)N1 (stereo not drawn) | 71.5
O=C(N/N=C/C1C=CC([N+](=O)[O-])O1)c1ccc(O)cc1 (stereo not drawn) | > 120
CC(=O)Nc1cccc(O)c1 | > 120
CCNc1nc(Cl)nc(NCC)n1 | 59.4
NC(N)=NS(=O)(=O)c1ccc(N)cc1 | 78.3
C[C@]12CC[C@H]3[C@@H](CCC4=CC(=O)CC[C@@]43C)[C@@H]1CC[C@@H]2C(=O)O | > 120
C=CC(=O)N1CCN(C(=O)CNc2cc(-c3ccccc3Cl)c(Cl)cc2OC)CC1 | 9.86
O=C(Nc1ccccc1Br)NC1CCN(c2ccc(C(F)(F)F)cn2)C1 (stereo not drawn) | 120
COc1ccc(S(=O)(=O)Nc2cc(Cl)cc(Cl)c2OC)cc1N1CCNCC1 | > 120

SMILES | half-life [min]
COCCCNC(=O)C(=O)Nc1c2c(nn1-c1cccc(Cl)c1)CSC2 | 24.9
CN1C2CCC(C)(C)C1CC(OC(=O)C(O)(c1cccs1)c1cccs1)C2 (stereo not drawn) | 26.5
Cc1noc(-c2ccc(-c3ccc(CC(=O)O)cc3)cc2)c1NC(=O)O[C@H](C)c1ccccc1Cl | 29.7
CCOC(=O)c1ncn2c1CN(C)C(=O)c1cc(F)ccc1-2 | > 120
COc1cc(N2CCN(C)CC2)ccc1Nc1nccc(-c2cn(C)c3cnccc23)n1 | > 120
CCc1ccc(C(=O)C(C)CN2CCCCC2)cc1 (stereo not drawn) | 4.87
FC(F)(F)c1ccccc1-c1cc(C(F)(F)F)c2nc(C3=NOC4(CCCCC4)C3)[nH]c2c1 | 67.7
Cc1ccc(COC(=O)N2CC[C@@H](CNc3ncccn3)[C@@H](F)C2)cc1 | 64.9
CCC(C)(C)c1ccc(CC(C)CN2C[C@@H](C)O[C@@H](C)C2)cc1 (stereo partly drawn) | 12.2
CN1CCN(C(=O)c2cc(-c3cccnc3)nc3c2cnn3C)CC1 | > 120
Cc1nnc(C(C)C)n1C1CC2CCC(C1)N2CCC(NC(=O)C1CCC(F)(F)CC1)c1ccccc1 (stereo not drawn) | > 120
CCN(CC)Cc1ccc(C(=O)N(CCc2ccccc2OC)[C@@H]2CCNC2)cc1 | > 120
COc1ccc(-c2ccn(CC[C@](C)(C(=O)NO)S(C)(=O)=O)c(=O)c2)c(F)c1 | > 120
Cc1ccc2c(n1)Oc1ccc(C(C)C(=O)OCC(=O)N(C)C)cc1C2 (stereo not drawn) | 11.1
COCCCN1CCC(NC(=O)c2cc(Cl)c(N)c3c2OCC3)CC1 | > 120
Cc1ccc(C(=O)c2cc(O)c(O)c([N+](=O)[O-])c2)cc1 | 34.1
CC(CCc1ccc(O)cc1)NCC(O)c1ccc(O)cc1 (stereo not drawn) | > 120
Clc1ccc(C2(c3ccc(-c4cn[nH]c4)cc3)CCNCC2)cc1 | > 120
CCOP(=O)(OCC)Oc1cc(C)nc(C(C)C)n1 | 99.9
COc1ccc(CNc2nc(N(CCO)CCO)nc3c2ncn3C(C)C)cc1 | 35.6
C=CC(=O)Nc1ccc2ncnc(Nc3cccc(Br)c3)c2c1 | 12.5
Cn1cc(-c2cnc3ccc4ccc(CS(=O)(=O)NCc5ccccn5)cc4c(=O)c3c2)cn1 | 17.1
CC(CN(C)C)CN1C2=C(CCCC2)SC2CCCCC21 (stereo not drawn) | 14.3

— PubChem BioAssay AID1963597 (National Center for Advancing Translational Sciences (NCATS), 2024)
